Laboratory results as given in patent publication US8895585B2, “Nicotinamide derivative or salt thereof” (FUJIFILM Corporation, priority 2010, dated 2014).

Columns and labels:
[1] = target: T1, glutathione S-transferase (GST)-fused full-length human Syk protein (Homo sapiens, UniProt P43405); test: Syk enzyme assay; format: biochemical; settings: Syk enzyme assay, Test Example 1; read-out: IC50 of Syk-inhibitory activity
T1 construct: (GST)-fused full-length human Syk protein; GST (glutathione S-transferase); purchased Carna Biosciences
In short: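 IC50 values come from a time-resolved FRET readout (615 and 665 nm) of substrate phosphorylation, measured after an EDTA stop and 1 h antibody binding. The kinase reaction ran 40 min at room temperature with 27 μM ATP and 0.4 μM biotin-peptide, following a 15 min compound preincubation with baculovirus-made GST-full-length human Syk.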

THP-1 cells = test: TNFα generation assay; format: cell-based, human; settings: Homo sapiens, THP-1, THP-1 cells; Table 22; read-out: IC50 in TNFα generation assay
In short: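 THP-1 cells differentiated to macrophage-like cells with 10 ng/ml IFN-γ for 2 days, preincubated with compound 30 min at room temperature, then cultured 7 h on plates coated with human IgG (10 μg/ml). Secreted TNFα measured by ELISA or AlphaLISA.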

| SMILES | IC50 [1] | IC50 (THP-1 cells) |
| --- | --- | --- |
| Cc1nn(C2CC2)c2ccc(Nc3nc(N[C@@H]4CCCC[C@@H]4N)c(F)cc3C(N)=O)cc12 [Example 006-477, 6-(((1R,2S)-2-aminocyclohexyl)amino)-2-((1-cyclopropyl-3-methyl-1H-indazol-5-yl)amino)-5-fluoronicotinamide] | < 10 nM | 130 to 200 nM |
| CCc1nn(C2CC2)c2ccc(Nc3nc(N[C@@H]4CCCC[C@@H]4N)c(F)cc3C(N)=O)cc12 [Example 006-478, 6-(((1R,2S)-2-aminocyclohexyl)amino)-2-((1-cyclopropyl-3-ethyl-1H-indazol-5-yl)amino)-5-fluoronicotinamide] | < 10 nM | 65 to 130 nM |
| C[C@H](N)[C@@H](CC1CC1)Nc1nc(Nc2ccc3cnn(C4CC4)c3c2)c(C(N)=O)cc1F [Example 006-480, 6-(((2R,3S)-3-amino-1-cyclopropylbutan-2-yl)amino)-2-((1-cyclopropyl-1H-indazol-6-yl)amino)-5-fluoronicotinamide] | < 10 nM | 130 to 200 nM |
| Cc1ncc(Nc2nc(N[C@H](C3CC3)[C@H](C)N)c(F)cc2C(N)=O)cc1-n1nccn1 [Example 006-483, 6-(((1R,2S)-2-amino-1-cyclopropylpropyl)amino)-5-fluoro-2-((6-methyl-5-(2H-1,2,3-triazol-2-yl)pyridin-3-yl)amino)nicotinamide] | < 10 nM | < 65 nM |
| COc1ncc(Nc2nc(N[C@@H]3CCCC[C@@H]3N)c(F)cc2C(N)=O)cc1F [Example 006-484, 6-(((1R,2S)-2-aminocyclohexyl)amino)-5-fluoro-2-((5-fluoro-6-methoxypyridin-3-yl)amino)nicotinamide] | 10 to 50 nM | 65 to 130 nM |
| Cc1nn(C)c2cc(Nc3nc(N[C@H](CC4CC4)[C@H](C)N)c(F)cc3C(N)=O)ccc12 [Example 006-485, 6-(((2R,3S)-3-amino-1-cyclopropylbutan-2-yl)amino)-2-((1,3-dimethyl-1H-indazol-6-yl)amino)-5-fluoronicotinamide] | < 10 nM | 65 to 130 nM |
| CCn1nc(C)c2ccc(Nc3nc(N[C@H](CC4CC4)[C@H](C)N)c(F)cc3C(N)=O)cc21 [Example 006-486, 6-(((2R,3S)-3-amino-1-cyclopropylbutan-2-yl)amino)-2-((1-ethyl-3-methyl-1H-indazol-6-yl)amino)-5-fluoronicotinamide] | < 10 nM | 130 to 200 nM |
| COCCn1nc(C)c2ccc(Nc3nc(N[C@H](CC4CC4)[C@H](C)N)c(F)cc3C(N)=O)cc21 [Example 006-487, 6-(((2R,3S)-3-amino-1-cyclopropylbutan-2-yl)amino)-5-fluoro-2-((1-(2-methoxyethyl)-3-methyl-1H-indazol-6-yl)amino)nicotinamide] | < 10 nM | 130 to 200 nM |
| Cc1nn(CCF)c2cc(Nc3nc(N[C@H](CC4CC4)[C@H](C)N)c(F)cc3C(N)=O)ccc12 [Example 006-488, 6-(((2R,3S)-3-amino-1-cyclopropylbutan-2-yl)amino)-5-fluoro-2-((1-(2-fluoroethyl)-3-methyl-1H-indazol-6-yl)amino)nicotinamide] | < 10 nM | 65 to 130 nM |
| Cc1nn(CC(F)F)c2cc(Nc3nc(N[C@H](CC4CC4)[C@H](C)N)c(F)cc3C(N)=O)ccc12 [Example 006-489, 6-(((2R,3S)-3-amino-1-cyclopropylbutan-2-yl)amino)-2-((1-(2,2-difluoroethyl)-3-methyl-1H-indazol-6-yl)amino)-5-fluoronicotinamide] | < 10 nM | 130 to 200 nM |
| COc1ncc(Nc2nc(N[C@@H]3CCCC[C@@H]3N)c(F)cc2C(N)=O)cc1-n1ccnn1 [Example 006-493, 6-(((1R,2S)-2-aminocyclohexyl)amino)-5-fluoro-2-((6-methoxy-5-(1H-1,2,3-triazol-1-yl)pyridin-3-yl)amino)nicotinamide] | 10 to 50 nM | 130 to 200 nM |
| CCOc1ncc(Nc2nc(N[C@@H]3CCCC[C@@H]3N)c(F)cc2C(N)=O)cc1-n1cccn1 [Example 006-494, 6-(((1R,2S)-2-aminocyclohexyl)amino)-2-((6-ethoxy-5-(1H-pyrazol-1-yl)pyridin-3-yl)amino)-5-fluoronicotinamide] | 10 to 50 nM | 130 to 200 nM |
| CCOc1ncc(Nc2nc(N[C@@H]3CCCC[C@@H]3N)c(F)cc2C(N)=O)cc1-n1nccn1 [Example 006-495, 6-(((1R,2S)-2-aminocyclohexyl)amino)-2-((6-ethoxy-5-(2H-1,2,3-triazol-2-yl)pyridin-3-yl)amino)-5-fluoronicotinamide] | < 10 nM | 130 to 200 nM |
| CCOc1ncc(Nc2nc(N[C@@H]3CCCC[C@@H]3N)c(F)cc2C(N)=O)cc1-n1ccnn1 [Example 006-496, 6-(((1R,2S)-2-aminocyclohexyl)amino)-2-((6-ethoxy-5-(1H-1,2,3-triazol-1-yl)pyridin-3-yl)amino)-5-fluoronicotinamide] | < 10 nM | 65 to 130 nM |
| CCOc1ncc(Nc2nc(N[C@@H]3CCCC[C@@H]3N)c(F)cc2C(N)=O)cc1C [Example 006-497, 6-(((1R,2S)-2-aminocyclohexyl)amino)-2-((6-ethoxy-5-methylpyridin-3-yl)amino)-5-fluoronicotinamide] | < 10 nM | 65 to 130 nM |
| COCCOc1ncc(Nc2nc(N[C@@H]3CCCC[C@@H]3N)c(F)cc2C(N)=O)cc1C [Example 006-498, 6-(((1R,2S)-2-aminocyclohexyl)amino)-5-fluoro-2-((6-(2-methoxyethoxy)-5-methylpyridin-3-yl)amino)nicotinamide] | < 10 nM | 65 to 130 nM |
| Cc1cc(Nc2nc(N[C@@H]3CCCC[C@@H]3N)c(F)cc2C(N)=O)cnc1-n1cccn1 [Example 006-499, 6-(((1R,2S)-2-aminocyclohexyl)amino)-5-fluoro-2-((5-methyl-6-(1H-pyrazol-1-yl)pyridin-3-yl)amino)nicotinamide] | 10 to 50 nM | 130 to 200 nM |
| Cc1cc(Nc2nc(N[C@@H]3CCCC[C@@H]3N)c(F)cc2C(N)=O)cnc1-n1nccn1 [Example 006-500, 6-(((1R,2S)-2-aminocyclohexyl)amino)-5-fluoro-2-((5-methyl-6-(2H-1,2,3-triazol-2-yl)pyridin-3-yl)amino)nicotinamide] | 10 to 50 nM | 65 to 130 nM |
| Cc1cc(Nc2nc(N[C@@H]3CCCC[C@@H]3N)c(F)cc2C(N)=O)cnc1-n1ccnn1 [Example 006-501, 6-(((1R,2S)-2-aminocyclohexyl)amino)-5-fluoro-2-((5-methyl-6-(1H-1,2,3-triazol-1-yl)pyridin-3-yl)amino)nicotinamide] | 10 to 50 nM | 130 to 200 nM |
| CCc1ncc(Nc2nc(N[C@@H]3CCCC[C@@H]3N)c(F)cc2C(N)=O)cc1C [Example 006-502, 6-(((1R,2S)-2-aminocyclohexyl)amino)-2-((6-ethyl-5-methylpyridin-3-yl)amino)-5-fluoronicotinamide] | < 10 nM | 65 to 130 nM |
| Cc1cc(Nc2nc(N[C@@H]3CCCC[C@@H]3N)c(F)cc2C(N)=O)cnc1C1CC1 [Example 006-503, 6-(((1R,2S)-2-aminocyclohexyl)amino)-2-((6-cyclopropyl-5-methylpyridin-3-yl)amino)-5-fluoronicotinamide] | < 10 nM | 65 to 130 nM |
| CCc1nn(C)c2ccc(Nc3nc(N[C@H](CC4CC4)[C@H](C)N)c(F)cc3C(N)=O)cc12 [Example 006-505, 6-(((2R,3S)-3-amino-1-cyclopropylbutan-2-yl)amino)-2-((3-ethyl-1-methyl-1H-indazol-5-yl)amino)-5-fluoronicotinamide] | < 10 nM | 130 to 200 nM |
| CCc1nn(CC)c2ccc(Nc3nc(N[C@H](CC4CC4)[C@H](C)N)c(F)cc3C(N)=O)cc12 [Example 006-506, 6-(((2R,3S)-3-amino-1-cyclopropylbutan-2-yl)amino)-2-((1,3-diethyl-1H-indazol-5-yl)amino)-5-fluoronicotinamide] | < 10 nM | 130 to 200 nM |
| CC(C)c1nn(C)c2ccc(Nc3nc(N[C@H](CC4CC4)[C@H](C)N)c(F)cc3C(N)=O)cc12 [Example 006-507, 6-(((2R,3S)-3-amino-1-cyclopropylbutan-2-yl)amino)-5-fluoro-2-((3-isopropyl-1-methyl-1H-indazol-5-yl)amino)nicotinamide] | < 10 nM | 130 to 200 nM |
| CCn1ncc2c(Nc3nc(N[C@H](CC4CC4)[C@H](C)N)c(F)cc3C(N)=O)cccc21 [Example 006-508, 6-(((2R,3S)-3-amino-1-cyclopropylbutan-2-yl)amino)-2-((1-ethyl-1H-indazol-4-yl)amino)-5-fluoronicotinamide] | < 10 nM | 65 to 130 nM |
| CCn1nc(F)c2cc(Nc3nc(N[C@H](CC4CC4)[C@H](C)N)c(F)cc3C(N)=O)ccc21 [Example 006-509, 6-(((2R,3S)-3-amino-1-cyclopropylbutan-2-yl)amino)-2-((1-ethyl-3-fluoro-1H-indazol-5-yl)amino)-5-fluoronicotinamide] | < 10 nM | 65 to 130 nM |
| C[C@H](N)[C@@H](CC1CC1)Nc1nc(Nc2ccc3c(c2)c(F)nn3CC(F)F)c(C(N)=O)cc1F [Example 006-510, 6-(((2R,3S)-3-amino-1-cyclopropylbutan-2-yl)amino)-2-((1-(2,2-difluoroethyl)-3-fluoro-1H-indazol-5-yl)amino)-5-fluoronicotinamide] | < 10 nM | 65 to 130 nM |
| CC(C)C[C@@H](Nc1nc(Nc2ccc3c(c2)c(F)nn3C)c(C(N)=O)cc1F)[C@H](C)N [Example 006-511, 6-(((2S,3R)-2-amino-5-methylhexan-3-yl)amino)-5-fluoro-2-((3-fluoro-1-methyl-1H-indazol-5-yl)amino)nicotinamide] | < 10 nM | < 65 nM |
